Results reported in the NIST ThermoML archive (doi:10.1016/j.jct.2005.07.011).

Test: excess molar enthalpy (molar enthalpy of mixing); xn = mol fraction of the nth substance listed
Settings: Liquid

CCCCCO [pentan-1-ol] + COC(=O)OC
Settings | excess molar enthalpy [kcal/mol]
298.15 K, 1000 kPa, x2 = 0.05 | 0.133
298.15 K, 1000 kPa, x2 = 0.101 | 0.246
298.15 K, 1000 kPa, x2 = 0.151 | 0.334
298.15 K, 1000 kPa, x2 = 0.2 | 0.405
298.15 K, 1000 kPa, x2 = 0.25 | 0.459
298.15 K, 1000 kPa, x2 = 0.3 | 0.498
298.15 K, 1000 kPa, x2 = 0.35 | 0.524
298.15 K, 1000 kPa, x2 = 0.4 | 0.542
298.15 K, 1000 kPa, x2 = 0.45 | 0.552
298.15 K, 1000 kPa, x2 = 0.5 | 0.552
298.15 K, 1000 kPa, x2 = 0.55 | 0.541
298.15 K, 1000 kPa, x2 = 0.601 | 0.52
298.15 K, 1000 kPa, x2 = 0.651 | 0.493
298.15 K, 1000 kPa, x2 = 0.701 | 0.454
298.15 K, 1000 kPa, x2 = 0.75 | 0.403
298.15 K, 1000 kPa, x2 = 0.851 | 0.273
298.15 K, 1000 kPa, x2 = 0.899 | 0.196
298.15 K, 1000 kPa, x2 = 0.949 | 0.104
313.15 K, 100 kPa, x2 = 0.05 | 0.138
313.15 K, 100 kPa, x2 = 0.101 | 0.259
313.15 K, 100 kPa, x2 = 0.151 | 0.354
313.15 K, 100 kPa, x2 = 0.2 | 0.432
313.15 K, 100 kPa, x2 = 0.25 | 0.494
313.15 K, 100 kPa, x2 = 0.301 | 0.541
313.15 K, 100 kPa, x2 = 0.351 | 0.571
313.15 K, 100 kPa, x2 = 0.402 | 0.593
313.15 K, 100 kPa, x2 = 0.451 | 0.602
313.15 K, 100 kPa, x2 = 0.501 | 0.601
313.15 K, 100 kPa, x2 = 0.549 | 0.59
313.15 K, 100 kPa, x2 = 0.601 | 0.567
313.15 K, 100 kPa, x2 = 0.648 | 0.538
313.15 K, 100 kPa, x2 = 0.749 | 0.446
313.15 K, 100 kPa, x2 = 0.799 | 0.376
313.15 K, 100 kPa, x2 = 0.851 | 0.304
313.15 K, 100 kPa, x2 = 0.899 | 0.207
313.15 K, 100 kPa, x2 = 0.949 | 0.103
313.15 K, 1000 kPa, x2 = 0.05 | 0.134
313.15 K, 1000 kPa, x2 = 0.101 | 0.255
313.15 K, 1000 kPa, x2 = 0.151 | 0.352
313.15 K, 1000 kPa, x2 = 0.2 | 0.427
313.15 K, 1000 kPa, x2 = 0.25 | 0.49
313.15 K, 1000 kPa, x2 = 0.301 | 0.537
313.15 K, 1000 kPa, x2 = 0.351 | 0.569
313.15 K, 1000 kPa, x2 = 0.401 | 0.591
313.15 K, 1000 kPa, x2 = 0.45 | 0.601
313.15 K, 1000 kPa, x2 = 0.501 | 0.601
313.15 K, 1000 kPa, x2 = 0.549 | 0.59
313.15 K, 1000 kPa, x2 = 0.601 | 0.566
313.15 K, 1000 kPa, x2 = 0.652 | 0.536
313.15 K, 1000 kPa, x2 = 0.749 | 0.455
313.15 K, 1000 kPa, x2 = 0.799 | 0.387
313.15 K, 1000 kPa, x2 = 0.851 | 0.308
313.15 K, 1000 kPa, x2 = 0.899 | 0.225
313.15 K, 1000 kPa, x2 = 0.949 | 0.109
313.15 K, 10000 kPa, x2 = 0.05 | 0.136
313.15 K, 10000 kPa, x2 = 0.101 | 0.255
313.15 K, 10000 kPa, x2 = 0.151 | 0.352
313.15 K, 10000 kPa, x2 = 0.199 | 0.427
313.15 K, 10000 kPa, x2 = 0.249 | 0.488
313.15 K, 10000 kPa, x2 = 0.3 | 0.537
313.15 K, 10000 kPa, x2 = 0.349 | 0.569
313.15 K, 10000 kPa, x2 = 0.4 | 0.589
313.15 K, 10000 kPa, x2 = 0.449 | 0.599
313.15 K, 10000 kPa, x2 = 0.499 | 0.6
313.15 K, 10000 kPa, x2 = 0.551 | 0.588
313.15 K, 10000 kPa, x2 = 0.6 | 0.567
313.15 K, 10000 kPa, x2 = 0.65 | 0.535
313.15 K, 10000 kPa, x2 = 0.85 | 0.309
313.15 K, 10000 kPa, x2 = 0.899 | 0.222
313.15 K, 10000 kPa, x2 = 0.949 | 0.106
328.15 K, 1000 kPa, x2 = 0.05 | 0.137
328.15 K, 1000 kPa, x2 = 0.101 | 0.258
328.15 K, 1000 kPa, x2 = 0.151 | 0.356
328.15 K, 1000 kPa, x2 = 0.202 | 0.441
328.15 K, 1000 kPa, x2 = 0.252 | 0.506
328.15 K, 1000 kPa, x2 = 0.3 | 0.555
328.15 K, 1000 kPa, x2 = 0.35 | 0.592
328.15 K, 1000 kPa, x2 = 0.4 | 0.616
328.15 K, 1000 kPa, x2 = 0.45 | 0.629
328.15 K, 1000 kPa, x2 = 0.5 | 0.631
328.15 K, 1000 kPa, x2 = 0.55 | 0.622
328.15 K, 1000 kPa, x2 = 0.601 | 0.6
328.15 K, 1000 kPa, x2 = 0.651 | 0.568
328.15 K, 1000 kPa, x2 = 0.701 | 0.525
328.15 K, 1000 kPa, x2 = 0.75 | 0.471
328.15 K, 1000 kPa, x2 = 0.851 | 0.327
328.15 K, 1000 kPa, x2 = 0.899 | 0.237
328.15 K, 1000 kPa, x2 = 0.949 | 0.122
